Reference: patent publication US9521847B2, “Synergistic weed control from applications of pyridine carboxylic acid herbicides and synthetic auxin herbicides and/or auxin transport inhibitors” (Dow AgroSciences LLC, priority 2014, dated 2016)
Read-outs that look alike come from different tables or passages of the source.

Key:
[1] = tested on: common chickweed (Stellaria media, STEME); assay: Greenhouse postemergence trial, % visual injury; assay type: in vivo; conditions: 5 g ae/ha alone; 20-22 d
[2] = tested on: wild pansy (Viola tricolor, VIOTR); assay: Greenhouse postemergence trial, % visual injury; conditions: for pest or weed control at 5 g/ha: Viola tricolor, post-emergence, read-out: % visual injury Obs
winter wheat (TRZAW) [3] = assay: Greenhouse postemergence trial, crop phytotoxicity (% visual injury); conditions: for % visual injury Obs: crop, 5 g ae/ha alone, 20-22 d
[4] = tested on: grain sorghum (Sorghum vulgare, SORVU); assay: Greenhouse postemergence trial, % visual injury; assay type: in vivo; conditions: for % visual injury Obs: 5 g ae/ha alone, 20-22 d
[5] = tested on: poinsettia (Euphorbia heterophylla, EPHHL); assay: Greenhouse postemergence trial, % visual injury; conditions: Euphorbia heterophylla, post-emergence; for pest or weed control at 5 g/ha: read-out: % visual injury Obs, 5 g ae/ha alone, 20-22 d
[6] = tested on: Canadian thistle (CIRAR, Cirsium arvense); assay: Greenhouse postemergence trial, % visual injury; conditions: for pest or weed control at 5 g/ha: Cirsium arvense, post-emergence;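 as to all read-outs here: plants sprayed at second to third true leaf stage, injury scored visually 20-22 d later against solvent-blank sprayed controls, 0 meaning no injury and 100 complete kill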
[7] = tested on: spring rape (Brassica napus, BRSNN); assay: Greenhouse postemergence trial, % visual injury; conditions: Brassica napus, post-emergence
[8] = tested on: wild buckwheat (Polygonum convolvulus, POLCO); assay: Greenhouse postemergence trial, % visual injury; assay type: in vivo; conditions: 5 g ae/ha alone; 20-22 d
[9] = tested on: nutsedge (Cyperus esculentus, CYPES); assay: Greenhouse postemergence trial, % visual injury; assay type: in vivo; conditions: for pest or weed control at 5 g/ha: Cyperus, post-emergence, 5 g ae/ha alone, 20-22 d, read-out: % visual injury Obs
maize (ZEAMX) = assay: Greenhouse postemergence trial, crop phytotoxicity (% visual injury); conditions: for % visual injury Obs: crop, 5 g ae/ha alone, 20-22 d
[10] = tested on: velvetleaf (Abutilon theophrasti, ABUTH); assay: Greenhouse postemergence trial, % visual injury; assay type: in vivo; conditions: for % visual injury Obs: 5 g ae/ha alone, 20-22 d
[11] = tested on: common lambsquarters (CHEAL, Chenopodium album L.); assay: Greenhouse postemergence trial, % visual injury; assay type: in vivo; conditions: Chenopodium album, post-emergence; 5 g ae/ha alone; 20-22 d; read-out: % visual injury Obs
[12] = tested on: sunflower (Helianthus annus, HELAN); assay: Greenhouse postemergence trial, % visual injury; assay type: in vivo; conditions: 5 g ae/ha alone; 20-22 d
winter wheat (TRZAW) [13] = conditions: Triticum aestivum (winter wheat), in vivo
[14] = tested on: kochia (KCHSC, Kochia scoparia); assay: Greenhouse postemergence trial, % visual injury; assay type: in vivo; conditions: KCHSC
Description: Following the protocol in Example 1, compound 1 and compound 2 were combined with 2,4 D EHE (EC) and applied to kochia (KCHSC, Kochia scoparia) and the phytotoxicity of the herbicidal compositions was measured.
Following the protocol in Example 1, compound 1 (EC) and Compound 2 (SC) were combined with diflufenzopyr and applied to kochia (Kochia scoparia, KCHSC) and the phytotoxicity of the herbicidal composition was measured.

[15] = tested on: ivyleaf morningglory (Ipomoea hederacea, IPOHE); assay: Greenhouse postemergence trial, % visual injury; conditions: Ipomoea, post-emergence, read-out: % visual injury, Obs, IPOHE, 10 g ae/ha
common rice (ORYSA) = assay: Greenhouse postemergence trial, crop phytotoxicity (% visual injury); conditions: ORYSA, 10 g ae/ha
[16] = read-out: % visual injury (Obs)

COc1c(N)nc(-c2ccc3sccc3c2)nc1C(=O)O [compound 11]
% visual injury Obs [1]: 40%
pest or weed control at 5 g/ha [2]: 10%
% visual injury Obs (winter wheat (TRZAW) [3]): 10%
% visual injury Obs [4]: 5%
pest or weed control at 5 g/ha [5]: 25%
pest or weed control at 5 g/ha ([6]; read-out: % visual injury Obs): 5%
plant injury at 5 g/ha ([7]; read-out: % visual injury Obs): 10%
% visual injury Obs [8]: 10%
pest or weed control at 5 g/ha [9]: 0%

COC(=O)c1nc(-c2ccc3ccoc3c2F)nc(N)c1OC [compound 12]
% visual injury Obs (maize (ZEAMX)): 0%
pest or weed control at 5 g/ha [2]: 18%
% visual injury Obs [10]: 10%
% visual injury Obs (winter wheat (TRZAW) [3]): 0%
% visual injury Obs [4]: 0%
pest or weed control at 5 g/ha [5]: 35%
pest or weed control at 5 g/ha ([6]; read-out: % visual injury Obs): 10%
plant injury at 5 g/ha ([7]; read-out: % visual injury Obs): 50%
pest or weed control at 5 g/ha [11]: 84%
pest or weed control at 5 g/ha [9]: 5%

COC(=O)c1nc(-c2ccc3cc[nH]c3c2F)c(F)c(/N=C/N(C)C)c1Cl [compound 13]
% visual injury Obs [1]: 50%
pest or weed control at 5 g/ha [2]: 25%
% visual injury Obs [10]: 0%
pest or weed control at 5 g/ha [5]: 75%
pest or weed control at 5 g/ha ([6]; read-out: % visual injury Obs): 10%
pest or weed control at 5 g/ha [11]: 60%
% visual injury Obs [8]: 25%
pest or weed control at 5 g/ha [9]: 0%

Nc1c(F)c(-c2cc(F)c3[nH]ccc3c2)nc(C(=O)O)c1Cl [compound 14]
% visual injury Obs (maize (ZEAMX)): 0%
pest or weed control at 5 g/ha [2]: 10%
% visual injury Obs [10]: 0%
% visual injury Obs (winter wheat (TRZAW) [3]): 0%
% visual injury Obs [4]: 0%
pest or weed control at 5 g/ha [5]: 20%
pest or weed control at 5 g/ha ([6]; read-out: % visual injury Obs): 5%
% visual injury Obs [12]: 10%
plant injury at 5 g/ha ([7]; read-out: % visual injury Obs): 10%
pest or weed control at 5 g/ha [11]: 15%

C=C(F)c1c(C(=O)O)nc(-c2ccc3cc[nH]c3c2F)c(F)c1N [compound 15]
% visual injury Obs (maize (ZEAMX)): 0%
pest or weed control at 5 g/ha [2]: 33%
% visual injury Obs [10]: 30%
% visual injury Obs (winter wheat (TRZAW) [3]): 5%
% visual injury Obs [4]: 0%
pest or weed control at 5 g/ha [5]: 73%
pest or weed control at 5 g/ha ([6]; read-out: % visual injury Obs): 15%
% visual injury Obs [12]: 90%
% visual injury Obs [8]: 30%
pest or weed control at 5 g/ha [9]: 25%

Nc1c(F)c(-c2ccc3cc[nH]c3c2)nc(C(=O)O)c1Cl [compound 16]
% visual injury (Obs) ([2]; compound 16 5 g ae/ha): 25%
% visual injury (Obs) ([4]; compound 16 5 g ae/ha): 13%
pest or weed control at 5 g/ha [6, 16]: 20%
plant injury at 5 g/ha [7, 16]: 60%
% visual injury (Obs) (winter wheat (TRZAW) [13]): 0%
% visual injury (Obs) ([9]; compound 16 5 g ae/ha): 25%

C/C(=N\NC(=O)Nc1cc(F)cc(F)c1)c1ncccc1C(=O)O [diflufenzopyr]
% visual injury, Obs. ([14]; diflufenzopyr 3.5 g ae/ha, Table 60): 0%
% visual injury, Obs. ([14]; diflufenzopyr 3.5 g ae/ha, Table 61): 0%
% visual injury, Obs. ([14]; diflufenzopyr 7 g ae/ha, Table 60): 0%
% visual injury, Obs. ([14]; diflufenzopyr 7 g ae/ha, Table 61): 0%

Nc1c(Cl)c(Cl)nc(C(=O)O)c1Cl [picloram-potassium, reference compound]
pest or weed control at 10 g/ha [15]: 40%
% visual injury, Obs (maize (ZEAMX); ZEAMX, 10 g ae/ha): 0%
% visual injury, Obs ([2]; VIOTR, 10 g ae/ha): 0%
pest or weed control at 10 g/ha ([10]; Abutilon theophrasti, post-emergence, ABUTH, 10 g ae/ha, read-out: % visual injury, Obs): 35%
% visual injury, Obs (winter wheat (TRZAW) [3]; TRZAW, 10 g ae/ha): 0%
% visual injury, Obs ([4]; SORVU, 10 g ae/ha): 0%
pest or weed control at 10 g/ha ([5]; read-out: % visual injury, Obs, EPHHL, 10 g ae/ha): 20%
% visual injury, Obs ([6]; CIRAR, 10 g ae/ha): 60%
pest or weed control at 10 g/ha ([14]; Bassia scoparia, post-emergence, 10 g ae/ha, read-out: % visual injury, Obs): 0%
% visual injury, Obs (common rice (ORYSA)): 0%
plant injury at 10 g/ha ([7]; read-out: % visual injury, Obs): 20%
% visual injury, Obs ([9]; CYPES, 10 g ae/ha): 0%
